Assay results from patent US20080261999A1, “Azabicycloalkane Derivatives Useful as Nicotinic Acetylcholine Receptor Agonists” (priority 2005, published 2008).
pEC50, pKi: −log10 of the molar value.

What was measured:
rat striatal slices = test: [3H] Dopamine release assay from rat striatal slices; type: cell-based
Method: [^3H] Dopamine Release Assay from Rat Striatal Slices
Release of [^3H]dopamine from rat striatal slices is performed as follows. Male Lister-Hooded rats (250-350 g) are sacrificed by exposure to CO2 followed by cervical dislocation. Striata from 2 rats is dissected and chopped 3 times at 150 μm using a Mcllwain tissue chopper, each time rotating the tissue through 60°. Slices are dispersed in Krebs bicarbonate buffer (118 mM NaCl, 2.4 mM KCl, 2.4 mM CaCl2.2H2O, 1.2 mM KH2PO4, 1.2 mM MgSO4.7H2O, 25 mM NaHCO3, 10 mM glucose, 1 mM ascorbic acid, gassed with 5% CO2/95% O2 for 1 h, pH 7.4) including […] pargyline, and incubated with [^3H]dopamine (50 nM) for 30 minutes at 37° C. […]
Optiphase Supermix (Wallac) scintillation fluid (170 μl) is added to each well of the collection plates prior to plates being heat sealed and radioactivity quantified using a Wallac 1450 Microbeta 96-well plate counter (Wallac Oy, Turku, Finland, counting efficiency 25%). Radioactivity remaining in the slices is measured by digestion of the tissue in 0.2 ml Solvable (Packard Biosciences) for 1 h followed by addition of 0.5 ml isopropyl alcohol and 4.5 ml Hlionic Fluor scintillation fluid (Packard Biosciences). Radioactivity was then quantified using a Wallac 1410 scintillation counter (Wallac Oy, Turku, Finland, counting efficiency 35%). […]

human α4β2 nAChRs = target: T1, human α4β2 nAChRs (Homo sapiens, UniProt P17787+P43681); test: Nicotinic receptor radioligand binding SPA, [3H]-epibatidine, α4β2
T1 construct: expressed in transfected cells; host or cells: HEK-293
T1 sequence (P43681 29-627): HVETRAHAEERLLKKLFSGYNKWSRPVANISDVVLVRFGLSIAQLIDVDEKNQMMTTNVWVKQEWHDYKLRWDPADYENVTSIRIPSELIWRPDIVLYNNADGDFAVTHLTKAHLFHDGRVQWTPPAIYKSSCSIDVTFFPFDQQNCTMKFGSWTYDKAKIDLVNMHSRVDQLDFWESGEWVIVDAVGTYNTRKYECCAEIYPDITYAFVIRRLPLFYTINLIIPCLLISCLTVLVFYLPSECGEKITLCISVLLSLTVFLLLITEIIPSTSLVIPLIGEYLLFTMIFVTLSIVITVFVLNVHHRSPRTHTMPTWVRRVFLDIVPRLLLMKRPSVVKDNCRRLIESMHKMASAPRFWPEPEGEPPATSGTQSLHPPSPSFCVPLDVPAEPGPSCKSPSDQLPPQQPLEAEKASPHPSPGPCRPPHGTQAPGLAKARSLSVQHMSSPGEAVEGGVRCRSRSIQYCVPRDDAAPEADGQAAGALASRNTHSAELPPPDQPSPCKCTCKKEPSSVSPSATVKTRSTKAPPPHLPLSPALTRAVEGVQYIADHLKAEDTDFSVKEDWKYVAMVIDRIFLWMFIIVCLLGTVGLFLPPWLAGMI
T1 sequence (P17787 26-502): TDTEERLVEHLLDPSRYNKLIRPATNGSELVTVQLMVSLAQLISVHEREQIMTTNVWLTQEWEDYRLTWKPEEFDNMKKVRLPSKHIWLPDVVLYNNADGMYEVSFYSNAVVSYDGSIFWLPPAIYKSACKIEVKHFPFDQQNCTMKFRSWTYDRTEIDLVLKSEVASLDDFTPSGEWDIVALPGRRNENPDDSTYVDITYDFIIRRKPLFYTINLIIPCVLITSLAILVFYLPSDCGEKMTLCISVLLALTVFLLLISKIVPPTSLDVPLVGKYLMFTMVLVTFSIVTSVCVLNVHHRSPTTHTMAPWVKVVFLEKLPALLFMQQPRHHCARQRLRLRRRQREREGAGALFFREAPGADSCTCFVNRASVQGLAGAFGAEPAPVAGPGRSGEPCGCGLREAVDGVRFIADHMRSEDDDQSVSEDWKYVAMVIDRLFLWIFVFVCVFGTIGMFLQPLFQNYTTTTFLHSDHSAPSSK
Method: (§1) Cell pastes from large-scale production of HEK-293 cells expressing human α4β2, or α3β4 nAChRs are homogenised in 4 volumes of the appropriate buffer (50 mM Tris.HCl containing 150 mM NaCl and 5 mM KCl, pH 7.4). The homogenate is centrifuged twice (40,000 g, 10 minutes, 4° C.) and the pellets re-suspended in 4 volumes of Tris.HCl buffer after the first spin and 8 volumes after the second spin. The re-suspended homogenate is centrifuged (100 g, 10 minutes, 4° C.) and the supernatant kept and re-centrifuged (40,000 g, 20 minutes, 4° C.). The pellet is re-suspended in Tris.HCl buffer supplemented with 10% w/v sucrose. The membrane preparation is stored in 1 ml aliquots at −80° C. until required. The protein concentration of the membrane preparation is determined using a BCA protein assay reagent kit.
(§2) 96-well SPA radioligand binding assays are performed in a final volume of 250 μl Tris-HCl buffer (50 mM Tris-HCl, 150 mM NaCl, 5 mM KCl, pH 7.4) with 1 nM ((α4β2) or 2 nM (α3β4) [^3H]-epibatidine (53 Ci/mmol; Amersham); 1 mg/well ((α4β2) or 1.5 mg/well (α3β4) WGA-coated PVT SPA beads (Amersham) and 30 μg/well membrane protein for all 3 assay types. Non-specific binding (<10% for all 3 assay types) is determined using 10 μM epibatidine.
(§3) Reactions are allowed to equilibrate for 2-4 hours at room temperature prior to reading on a Trilux Scintillation counter (Perkin Elmer). […]

human α3β4 nAChRs = target: T2, human α3β4 nAChRs (Homo sapiens, UniProt P30926+P32297); test: Nicotinic receptor radioligand binding SPA, [3H]-epibatidine, α3β4; conditions: HEK-293 membranes, 2 nM [3H]-epibatidine
T2 construct: expressed in transfected cells; host or cells: HEK-293
T2 sequence (P32297 32-505): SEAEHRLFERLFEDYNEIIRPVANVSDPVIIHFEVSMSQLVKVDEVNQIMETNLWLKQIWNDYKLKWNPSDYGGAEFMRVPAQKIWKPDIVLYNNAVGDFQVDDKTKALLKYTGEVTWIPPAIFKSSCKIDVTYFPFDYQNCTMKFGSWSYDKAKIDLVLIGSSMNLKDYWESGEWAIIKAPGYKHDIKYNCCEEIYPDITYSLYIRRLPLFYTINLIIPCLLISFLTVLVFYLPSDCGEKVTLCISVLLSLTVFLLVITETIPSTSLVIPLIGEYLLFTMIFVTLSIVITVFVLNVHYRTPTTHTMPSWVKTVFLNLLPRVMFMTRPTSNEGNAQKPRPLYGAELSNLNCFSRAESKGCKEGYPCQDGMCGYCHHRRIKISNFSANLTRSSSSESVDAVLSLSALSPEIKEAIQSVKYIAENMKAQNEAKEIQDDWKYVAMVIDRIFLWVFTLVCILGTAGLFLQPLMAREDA
T2 sequence (P30926 22-498): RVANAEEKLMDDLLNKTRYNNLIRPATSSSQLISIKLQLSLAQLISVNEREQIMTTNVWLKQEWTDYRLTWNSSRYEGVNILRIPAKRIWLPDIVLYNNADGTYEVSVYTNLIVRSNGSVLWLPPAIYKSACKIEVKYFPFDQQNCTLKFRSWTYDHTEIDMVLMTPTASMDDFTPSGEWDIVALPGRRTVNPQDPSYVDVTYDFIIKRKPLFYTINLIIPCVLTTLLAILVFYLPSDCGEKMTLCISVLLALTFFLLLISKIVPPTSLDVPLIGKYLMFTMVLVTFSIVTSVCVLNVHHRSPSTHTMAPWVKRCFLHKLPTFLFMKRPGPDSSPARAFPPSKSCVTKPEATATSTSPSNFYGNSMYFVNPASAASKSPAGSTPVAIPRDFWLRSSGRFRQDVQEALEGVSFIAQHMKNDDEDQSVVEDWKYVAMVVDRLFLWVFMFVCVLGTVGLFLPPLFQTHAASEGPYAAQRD
Method: as §1, §2, §3

Structure (SMILES): Fc1cc(C2=CC3CNCC(C2)C3)cc(-c2ccoc2)c1 (centres unmarked) [Example 20]
- pEC50 (rat striatal slices): 6.87
- Efficacy Dopamine release % (rat striatal slices): 41.7%
- pKi (human α4β2 nAChRs; HEK-293 membranes, 1 nM [3H]-epibatidine): 8.27
- Ki α3β4/Ki α4β2 (human α4β2 nAChRs; selectivity for α4β2 over α3β4): 89.2
- pKi (human α3β4 nAChRs): 6.32
